Assay results from US20230131899A1, “INHIBITORS OF MICROBIALLY INDUCED AMYLOID” (Axial Therapeutics, Inc., priority 2020, published 2023).
Where two headings read alike, the source gives them in different places.

Legend:
[1] = test system: CsgA gene expression (csgBAC promoter-GFP reporter) in E. coli UTI89; test: In vitro live cell fluorescent reporter assay of CsgA transcription (Reporter Assay); format: cell-based; conditions: Escherichia coli
Outline: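 Chromosomal single-copy csgBAC promoter–GFP reporter in E. coli UTI89, started at OD600 0.003 in YESCA broth with compound (0.14–100 μM, 1% DMSO), 20 h at 27 °C. GFP (ex 485/em 525 nm) background-subtracted and normalized to vehicle; IC50 and X[50] from curve fits. OD600 tracked growth effects.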

E. coli CsgA = biological target: T1, E. coli CsgA (Escherichia coli, UniProt P28307); test: In vitro ThioflavinT assay of CsgA aggregation (CsgA ThT Assay); format: biochemical; conditions: for remaining activity at 25 µM: compound 25 μM; for remaining activity at 100 µM: compound 100 μM
T1 construct: made in house; host or cells: E. coli NEB 3016 slyD::kan, pET11d
Outline: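 Purified C-terminal His-tagged CsgA, monomerised by desalting and 30-kDa filtration, at 2-20 μM with 20-40 μM ThT in 50 mM potassium phosphate pH 7.3, 1% DMSO, compounds 3.125-200 uM; room temperature, fluorescence (ex 438/em 495 nm) read every 15 min. Background-subtracted signal expressed as percent inhibition versus vehicle at 6-6.5 or 8-9 h, or as percent control AUC.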

[2] = read-out: Reporter Assay Abs IC50 (activity range), median Abs IC50 in the CsgA reporter assay, class symbol
[3] = read-out: Reporter Assay Abs IC50 (μM), median Abs IC50 in the CsgA reporter assay, N/A = maximum expression reduction is <50% of control
[4] = read-out: CsgA ThT Assay (10 μM CsgA) % Control AUC at 1005 minutes, 25 μM (activity range), CsgA 10 μM, black plates, 1005 minutes, class symbol
[5] = read-out: CsgA ThT Assay (10 μM CsgA) % Control AUC at 1005 minutes, 25 μM, mean AUC as % of DMSO control, CsgA 10 μM, black plates, 1005 minutes
[6] = read-out: CsgA ThT Assay (10 μM CsgA) % Control AUC at 1005 minutes, 100 μM (activity range), CsgA 10 μM, black plates, 1005 minutes, class symbol
[7] = read-out: CsgA ThT Assay (10 μM CsgA) % Control AUC at 1005 minutes, 100 μM, mean AUC as % of DMSO control, CsgA 10 μM, black plates, 1005 minutes

T1 sequence (P28307 23-151): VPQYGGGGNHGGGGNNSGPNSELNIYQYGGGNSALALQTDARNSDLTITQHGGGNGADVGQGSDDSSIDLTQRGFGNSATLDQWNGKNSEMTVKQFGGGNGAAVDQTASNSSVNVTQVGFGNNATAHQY

Compound	IC50 [1, 2] [µM]	IC50 [1, 3] [µM]	remaining activity at 25 µM (E. coli CsgA; [4]) [%]	remaining activity at 25 µM (E. coli CsgA; [5]) [%]	remaining activity at 100 µM (E. coli CsgA; [6]) [%]	remaining activity at 100 µM (E. coli CsgA; [7]) [%]	IC50 ([1]; read-out: Reporter Assay Abs IC50, activity range, class symbol) [µM]	remaining activity at 25 µM (E. coli CsgA; read-out: CsgA ThT Assay (2 μM CsgA) % Control Bmax 25 μM, activity range, class symbol, CsgA 2 μM, white plates) [%]	remaining activity at 25 µM (E. coli CsgA; read-out: CsgA ThT Assay (2 μM CsgA) % Control Bmax 25 μM, mean Bmax as percentage of DMSO control, CsgA 2 μM, white plates) [%]	remaining activity at 100 µM (E. coli CsgA; read-out: CsgA ThT Assay (2 μM CsgA) % Control Bmax 100 μM, activity range, class symbol, CsgA 2 μM, white plates) [%]	remaining activity at 100 µM (E. coli CsgA; read-out: CsgA ThT Assay (2 μM CsgA) % Control Bmax 100 μM, mean Bmax as percentage of DMSO control, CsgA 2 μM, white plates) [%]
O=C(O)C1CNc2c(-c3cccc(C(F)(F)F)c3)c(Cc3cccc4ccccc34)cc(=O)n21 (stereo not drawn) [Compound 080, 7-(naphthalen-1-ylmethyl)-5-oxo-8-(3-(trifluoromethyl)phenyl)-1,2,3,5-tetrahydroimidazo[1,2-a]pyridine-3-carboxylic acid]	> 10	26.3	> 60	80	> 60	72	–	–	–	–	–
Nc1c(Cc2cccc3ccccc23)c(-c2cccc(C(F)(F)F)c2)c2n(c1=O)C(C(=O)O)CN(CCO)S2(=O)=O (stereo not drawn) [Compound 098, 7-amino-2-(2-hydroxyethyl)-8-(naphthalen-1-ylmethyl)-6-oxo-9-(3-(trifluoromethyl)phenyl)-3,4-dihydro-2H,6H-pyrido[1,2-e][1,2,5]thiadiazine-4-carboxylic acid 1,1-dioxide]	> 10	20.9	31 to 60	60	31 to 60	33	–	–	–	–	–
CCCN1CC(C(=O)O)n2c(c(-c3cccc(C(F)(F)F)c3)c(Cc3cccc4ccccc34)c(Br)c2=O)S1(=O)=O (stereo not drawn) [Compound 107, 7-bromo-8-(naphthalen-1-ylmethyl)-6-oxo-2-propyl-9-(3-(trifluoromethyl)phenyl)-3,4-dihydro-2H,6H-pyrido[1,2-e][1,2,5]thiadiazine-4-carboxylic acid 1,1-dioxide]	1.3 to 4.5	3.7	31 to 60	36	31 to 60	38	–	–	–	–	–
CCCCN1CC(C(=O)O)n2c(c(-c3cccc(C(F)(F)F)c3)c(Cc3cccc4ccccc34)c(N)c2=O)S1(=O)=O (stereo not drawn) [Compound 093, 7-amino-2-butyl-8-(naphthalen-1-ylmethyl)-6-oxo-9-(3-(trifluoromethyl)phenyl)-3,4-dihydro-2H,6H-pyrido[1,2-e][1,2,5]thiadiazine-4-carboxylic acid 1,1-dioxide]	1.3 to 4.5	3.6	31 to 60	49	31 to 60	37	–	–	–	–	–
Nc1c(Cc2cccc3ccccc23)c(-c2cccc(C(F)(F)F)c2)c2n(c1=O)C(C(=O)O)CNS2(=O)=O (stereo not drawn) [Compound 082, 7-amino-8-(naphthalen-1-ylmethyl)-6-oxo-9-(3-(trifluoromethyl)phenyl)-3,4-dihydro-2H,6H-pyrido[1,2-e][1,2,5]thiadiazine-4-carboxylic acid 1,1-dioxide]	> 10	17.5	31 to 60	51	11 to 31	12	–	–	–	–	–
CN1CC(C(=O)O)n2c1c(-c1cccc(C(F)(F)F)c1)c(C(F)(F)c1cccc3ccccc13)cc2=O (stereo not drawn) [Compound 135, 7-(difluoro(naphthalen-1-yl)methyl)-1-methyl-5-oxo-8-(3-(trifluoromethyl)phenyl)-1,2,3,5-tetrahydroimidazo[1,2-a]pyridine-3-carboxylic acid]	–	4	–	–	–	–	1.3 to 4.5	> 60	88	> 60	67
O=C(O)C1CN(C(CO)CO)S(=O)(=O)c2c(-c3cccc(C(F)(F)F)c3)c(Cc3cccc4ccccc34)cc(=O)n21 (stereo not drawn) [Compound 106, 2-(1,3-dihydroxypropan-2-yl)-8-(naphthalen-1-ylmethyl)-6-oxo-9-(3-(trifluoromethyl)phenyl)-3,4-dihydro-2H,6H-pyrido[1,2-e][1,2,5]thiadiazine-4-carboxylic acid 1,1-dioxide]	> 10	28.3	> 60	95	31 to 60	38	–	–	–	–	–
